Our source for the class values is patent publication US20050197350A1, “Novel quinoline, tetrahydroquinazoline, and pyrimidine derivatives and methods of treatment related to the use thereof” (TAISHO PHARMACEUTICAL CO., LTD., priority 2003, published 2005).

SMILES strings stand for the structures.

For this assay, the system named is MCH receptors. In words: MCH receptor activity class (method not given). Conditions: class by percent of control at 10^-7 M or IC50.

In the case of `CN(C)c1cc(N[C@H]2CC[C@@H](NC(=O)CCCc3ccc([N+](=O)[O-])cc3)CC2)nc2ccccc12` [compound 725], the class is 3 (Class 3 The value of percent of control at 10^−7 M was more than 60% or the value of IC50 was more than 200 nM.).

In the case of `CN(C)c1cc(N[C@H]2CC[C@@H](NC(=O)/C=C/c3ccccc3[N+](=O)[O-])CC2)nc2ccccc12` [compound 726], the class is 3 (Class 3 The value of percent of control at 10^−7 M was more than 60% or the value of IC50 was more than 200 nM.).

As to `CN(C)c1cc(N[C@H]2CC[C@@H](NC(=O)Cc3cccc(Oc4ccccc4)c3)CC2)nc2ccccc12` [compound 727], the class is listed as 3 (Class 3 The value of percent of control at 10^−7 M was more than 60% or the value of IC50 was more than 200 nM.).

`CN(C)c1cc(N[C@H]2CC[C@@H](NC(=O)Cc3ccc(Oc4ccccc4)cc3)CC2)nc2ccccc12` [compound 728]: the class is 3 (Class 3 The value of percent of control at 10^−7 M was more than 60% or the value of IC50 was more than 200 nM.).

Consider `CN(C)c1cc(N[C@H]2CC[C@@H](NC(=O)Cc3c(-c4ccccc4)[nH]c4ccccc34)CC2)nc2ccccc12` [compound 729, N-(cis-4-{[4-(dimethylamino)quinolin-2-yl]amino}cyclohexyl)-2-(2-phenyl-1H-indol-3-yl)acetamide], for which the class is reported as 2 (Class 2: The value of percent of control at 10^−7 M was from 40% to 60% or the value of IC′50 was from 50 nM to 200 nM.).

`CN(C)c1cc(N[C@H]2CC[C@@H](NC(=O)c3cccc(Oc4ccccc4)c3)CC2)nc2ccccc12` [compound 731]: the class is 3 (Class 3 The value of percent of control at 10^−7 M was more than 60% or the value of IC50 was more than 200 nM.).

For the molecule `CN(C)c1cc(N[C@H]2CC[C@@H](NC(=O)c3ccccc3CCc3ccccc3)CC2)nc2ccccc12` [compound 732], the class was 3 (Class 3 The value of percent of control at 10^−7 M was more than 60% or the value of IC50 was more than 200 nM.).

With `CN(C)c1cc(N[C@H]2CC[C@@H](NC(=O)c3cccc(C(=O)c4ccccc4)c3)CC2)nc2ccccc12` [compound 733], the class is 3 (Class 3 The value of percent of control at 10^−7 M was more than 60% or the value of IC50 was more than 200 nM.).

With `CCSC(C(=O)N[C@H]1CC[C@@H](Nc2cc(N(C)C)c3ccccc3n2)CC1)(c1ccccc1)c1ccccc1` [compound 734], the class is 3 (Class 3 The value of percent of control at 10^−7 M was more than 60% or the value of IC50 was more than 200 nM.).

As to `CN(C)c1cc(N[C@H]2CC[C@@H](NC(=O)c3ccccc3Sc3ccccc3C#N)CC2)nc2ccccc12` [compound 735], the class was 3 (Class 3 The value of percent of control at 10^−7 M was more than 60% or the value of IC50 was more than 200 nM.).

As to `COc1cc(CC(=O)N[C@H]2CC[C@@H](Nc3cc(N(C)C)c4ccccc4n3)CC2)ccc1OCc1ccccc1` [compound 736], the class was 3 (Class 3 The value of percent of control at 10^−7 M was more than 60% or the value of IC50 was more than 200 nM.).

On to `C[C@@H](NC(=O)c1ccccc1C(=O)N[C@H]1CC[C@@H](Nc2cc(N(C)C)c3ccccc3n2)CC1)c1cccc2ccccc12` [compound 737], for which the class is 3 (Class 3 The value of percent of control at 10^−7 M was more than 60% or the value of IC50 was more than 200 nM.).

As to `C[C@H](C(=O)N[C@H]1CC[C@@H](Nc2cc(N(C)C)c3ccccc3n2)CC1)c1cccc(C(=O)c2ccccc2)c1` [compound 738], the class is given as 3 (Class 3 The value of percent of control at 10^−7 M was more than 60% or the value of IC50 was more than 200 nM.).

As to `C[C@@H](c1ccccc1)N(C(=O)c1ccccc1C(=O)N[C@H]1CC[C@@H](Nc2cc(N(C)C)c3ccccc3n2)CC1)[C@@H](C)c1ccccc1` [compound 739], the class was 3 (Class 3 The value of percent of control at 10^−7 M was more than 60% or the value of IC50 was more than 200 nM.).

Consider `C[C@H](C(=O)N[C@H]1CC[C@@H](Nc2cc(N(C)C)c3ccccc3n2)CC1)c1ccc(-c2ccccc2)c(F)c1` [compound 740], for which the class was 3 (Class 3 The value of percent of control at 10^−7 M was more than 60% or the value of IC50 was more than 200 nM.).

For `CN(C)c1cc(N[C@H]2CC[C@@H](NC(=O)CCC(=O)c3cccs3)CC2)nc2ccccc12` [compound 745], the class is given as 3 (Class 3 The value of percent of control at 10^−7 M was more than 60% or the value of IC50 was more than 200 nM.).

As to `CN(C)c1cc(N[C@H]2CC[C@@H](NC(=O)CCCc3cccs3)CC2)nc2ccccc12` [compound 746], the class was 3 (Class 3 The value of percent of control at 10^−7 M was more than 60% or the value of IC50 was more than 200 nM.).

As for `CN(C)c1cc(N[C@H]2CC[C@@H](NC(=O)COc3c(Cl)cc(Cl)cc3Cl)CC2)nc2ccccc12` [compound 747], the class was 2 (Class 2: The value of percent of control at 10^−7 M was from 40% to 60% or the value of IC′50 was from 50 nM to 200 nM.).

Consider `CN(C)c1cc(N[C@H]2CC[C@@H](NC(=O)Cc3c[nH]c4ccc(OCc5ccccc5)cc34)CC2)nc2ccccc12` [compound 748], for which the class was 3 (Class 3 The value of percent of control at 10^−7 M was more than 60% or the value of IC50 was more than 200 nM.).

In the case of `CN(C)c1cc(N[C@H]2CC[C@@H](NC(=O)c3ccccc3C(=O)c3cccc4ccccc34)CC2)nc2ccccc12` [compound 749], the class was 3 (Class 3 The value of percent of control at 10^−7 M was more than 60% or the value of IC50 was more than 200 nM.).

As to `COc1ccc(C(=O)N[C@H]2CC[C@@H](Nc3cc(N(C)C)c4ccccc4n3)CC2)cc1OCc1ccccc1` [compound 750], the class is listed as 2 (Class 2: The value of percent of control at 10^−7 M was from 40% to 60% or the value of IC′50 was from 50 nM to 200 nM.).

For the molecule `Cc1c(C(=O)N[C@H]2CC[C@@H](Nc3cc(N(C)C)c4ccccc4n3)CC2)cc(-c2ccccc2)n1-c1ccccc1` [compound 751], the class was 3 (Class 3 The value of percent of control at 10^−7 M was more than 60% or the value of IC50 was more than 200 nM.).

Turning to `Cc1c(C(=O)N[C@H]2CC[C@@H](Nc3cc(N(C)C)c4ccccc4n3)CC2)cc(-c2ccccc2)n1CCSCc1c(F)cccc1Cl` [compound 752], the class is listed as 3 (Class 3 The value of percent of control at 10^−7 M was more than 60% or the value of IC50 was more than 200 nM.).

With `CN(C)c1cc(N[C@H]2CC[C@@H](NC(=O)c3c4ccccc4cc4ccccc34)CC2)nc2ccccc12` [compound 753], the class is 3 (Class 3 The value of percent of control at 10^−7 M was more than 60% or the value of IC50 was more than 200 nM.).

As for `CN(C)c1cc(N[C@H]2CC[C@@H](NC(=O)c3ccccc3Oc3ccccc3)CC2)nc2ccccc12` [compound 754, N-(cis-4-{[4-(dimethylamino)quinolin-2-yl]amino}cyclohexyl)-2-phenoxybenzamide], the class is on record as 2 (Class 2: The value of percent of control at 10^−7 M was from 40% to 60% or the value of IC′50 was from 50 nM to 200 nM.).

Regarding `CN(C)c1cc(N[C@H]2CC[C@@H](NC(=O)c3ccccc3-c3ccccc3)CC2)nc2ccccc12` [compound 755], the class is 3 (Class 3 The value of percent of control at 10^−7 M was more than 60% or the value of IC50 was more than 200 nM.).

For `CN(C)c1cc(N[C@H]2CC[C@@H](NC(=O)CC(c3ccccc3)c3ccccc3)CC2)nc2ccccc12` [compound 756], the class was 3 (Class 3 The value of percent of control at 10^−7 M was more than 60% or the value of IC50 was more than 200 nM.).

With `CN(C)c1cc(N[C@H]2CC[C@@H](NC(=O)c3cc(-c4ccccc4)nc4ccccc34)CC2)nc2ccccc12` [compound 757, N-(cis-4-{[4-(dimethylamino)quinolin-2-yl]amino}cyclohexyl)-2-phenylquinoline-4-carboxamide], the class is 2 (Class 2: The value of percent of control at 10^−7 M was from 40% to 60% or the value of IC′50 was from 50 nM to 200 nM.).

Turning to `C[C@H](NC(=O)c1ccccc1C(=O)N[C@H]1CC[C@@H](Nc2cc(N(C)C)c3ccccc3n2)CC1)c1ccccc1` [compound 758], the class is given as 3 (Class 3 The value of percent of control at 10^−7 M was more than 60% or the value of IC50 was more than 200 nM.).

As to `Cc1ccc(C(=O)c2ccccc2C(=O)N[C@H]2CC[C@@H](Nc3cc(N(C)C)c4ccccc4n3)CC2)cc1` [compound 759], the class is 3 (Class 3 The value of percent of control at 10^−7 M was more than 60% or the value of IC50 was more than 200 nM.).

In the case of `CN(C)c1cc(N[C@H]2CC[C@@H](NC(=O)c3ccccc3COc3ccccc3)CC2)nc2ccccc12` [compound 760], the class is listed as 3 (Class 3 The value of percent of control at 10^−7 M was more than 60% or the value of IC50 was more than 200 nM.).

On to `CN(C)c1cc(N[C@H]2CC[C@@H](NC(=O)Cc3sc(-c4ccccc4)nc3-c3ccc(Cl)cc3)CC2)nc2ccccc12` [compound 761], for which the class was 3 (Class 3 The value of percent of control at 10^−7 M was more than 60% or the value of IC50 was more than 200 nM.).

Consider `Cc1ccc(S(=O)(=O)n2ccc(C(=O)N[C@H]3CC[C@@H](Nc4cc(N(C)C)c5ccccc5n4)CC3)c2)cc1` [compound 762], for which the class is 3 (Class 3 The value of percent of control at 10^−7 M was more than 60% or the value of IC50 was more than 200 nM.).

Take `CN(C)c1cc(N[C@H]2CC[C@@H](NC(=O)c3ccc(-c4cccc([N+](=O)[O-])c4)o3)CC2)nc2ccccc12` [compound 763, N-(cis-4-{[4-(dimethylamino)quinolin-2-yl]amino}cyclohexyl)-5-(3-nitrophenyl)-2-furamide]: the class is on record as 1 (Class 1: The value of percent of control at 10^−7 M was less than 40% or the value of IC50 was less than 50 nM.).

As for `CN(C)c1cc(N[C@H]2CC[C@@H](NC(=O)c3scc(S(C)(=O)=O)c3Cl)CC2)nc2ccccc12` [compound 764], the class is 3 (Class 3 The value of percent of control at 10^−7 M was more than 60% or the value of IC50 was more than 200 nM.).

For `CSc1sc(C(=O)N[C@H]2CC[C@@H](Nc3cc(N(C)C)c4ccccc4n3)CC2)c(Cl)c1S(=O)(=O)C(C)C` [compound 765], the class is recorded as 3 (Class 3 The value of percent of control at 10^−7 M was more than 60% or the value of IC50 was more than 200 nM.).
